Some test systems named below: COLO 205 colon; SNB-75 CNS; SR leukemia; SK-MEL-5 melanoma; HL-60(TB) leukemia; OVCAR-8 ovarian; SF-268 CNS; KM12 colon; UACC-257 melanoma; SK-MEL-2 melanoma.
Holding throughout (experiment): DTP human tumour cell line panel, 48 h

This is an account of results in PubChem BioAssay (NCI).

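Where inhibition never reached the appropriate level, the endpoint shown equals the highest concentration tested. Otherwise, values were interpolated linearly from a five-concentration, 48-hour dose response in 96-well plates. GI50 = concentration required for 50% inhibition of growth. Definition used: TGI = concentration required for complete inhibition of growth.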

With `O=C(Cc1ccc(Nc2ccnc(C(F)(F)F)c2)cc1)Nc1cc(Cl)ccc1O`, the GI50 – broadly, the concentration giving 50% growth inhibition – in the assay on COLO 205 colon was 21.7 µM; in the assay with SNB-75 CNS, 11.9 µM; with SR leukemia it was 2.45 µM; in the assay with SK-MEL-5 melanoma it was 3.86 µM; with HL-60(TB) leukemia it was 1.7 µM; in the assay with OVCAR-8 ovarian, 20.5 µM. The values for the GI50 with SF-268 CNS, in the assay with KM12 colon and in the assay with UACC-257 melanoma were 8.39 µM, 4.36 µM and 11.8 µM, respectively. The TGI (in general, the concentration at which net growth stops) in the assay with COLO 205 colon is 55.4 µM; in the assay on SNB-75 CNS, 37.5 µM; with SR leukemia, 14.9 µM; with SK-MEL-5 melanoma, 14.7 µM; with HL-60(TB) leukemia, 5.35 µM; with OVCAR-8 ovarian, greater than 100 µM. Further, the results for the TGI in the assay with SF-268 CNS, in the assay with KM12 colon and in the assay with UACC-257 melanoma were 31.5 µM, 16.9 µM and 49.8 µM, respectively.

For the compound `OCC(O)COc1c(Cl)cc(Cl)cc1Cl` (centres undefined), the TGI with COLO 205 colon, in the assay with SNB-75 CNS, with SR leukemia, in the assay on SK-MEL-2 melanoma, in the assay on SK-MEL-5 melanoma and with HL-60(TB) leukemia was greater than 100 µM throughout. Further, the TGI in the assay with OVCAR-8 ovarian, in the assay on SF-268 CNS, in the assay on KM12 colon and in the assay with UACC-257 melanoma was greater than 100 µM in each case.

For the compound `COc1ccc2c(c1)[nH]c(=O)c1c3cc(OC)c(OC)cc3cn21`, the GI50 in the assay with COLO 205 colon is less than 0.01 µM; in the assay on SNB-75 CNS it was less than 0.01 µM; in the assay with SR leukemia, less than 0.01 µM; in the assay on SK-MEL-2 melanoma, 0.0303 µM; in the assay on SK-MEL-5 melanoma it was less than 0.01 µM; in the assay on HL-60(TB) leukemia it was less than 0.01 µM. Moreover, the GI50 in the assay with OVCAR-8 ovarian is 0.0193 µM; with SF-268 CNS, less than 0.01 µM; with KM12 colon, less than 0.01 µM; in the assay with UACC-257 melanoma, 14.7 µM. Further, the TGI in the assay with COLO 205 colon is 0.0635 µM; in the assay with SNB-75 CNS, 19.7 µM; in the assay on SR leukemia it was 0.0961 µM; in the assay on SK-MEL-2 melanoma, 20.8 µM; in the assay on SK-MEL-5 melanoma it was 11.2 µM; with HL-60(TB) leukemia it was less than 0.0104 µM. For the same compound, the TGI came out at 14.9 µM in the assay on OVCAR-8 ovarian, 1.45 µM in the assay with SF-268 CNS, 0.292 µM in the assay with KM12 colon and 29.5 µM in the assay with UACC-257 melanoma.

Take `O=C(Cn1c(C(=O)c2ccc(Cl)cc2)nc(-c2ccccc2)c1-c1ccccc1)c1ccc(Cl)cc1`: the GI50 in the assay with COLO 205 colon, with SNB-75 CNS, in the assay on SR leukemia, in the assay with SK-MEL-2 melanoma, with SK-MEL-5 melanoma and in the assay with HL-60(TB) leukemia was greater than 100 µM in each case. The GI50 in the assay with OVCAR-8 ovarian, in the assay with SF-268 CNS, in the assay with KM12 colon and with UACC-257 melanoma was greater than 100 µM each time. In addition, the TGI in the assay with COLO 205 colon, with SNB-75 CNS, in the assay on SR leukemia, with SK-MEL-2 melanoma, in the assay with SK-MEL-5 melanoma and in the assay with HL-60(TB) leukemia was greater than 100 µM each time. Moreover, the TGI in the assay on OVCAR-8 ovarian, with SF-268 CNS, in the assay on KM12 colon and in the assay with UACC-257 melanoma was greater than 100 µM throughout.

For `Cc1cn([C@H]2C[C@H](O)[C@@H](CO)O2)c(=O)nc1N`, the TGI in the assay on COLO 205 colon, in the assay on SNB-75 CNS, with SR leukemia, in the assay with SK-MEL-2 melanoma, in the assay with SK-MEL-5 melanoma and in the assay on HL-60(TB) leukemia was greater than 100 µM throughout. Moreover, the total growth inhibition concentration (TGI) in the assay on OVCAR-8 ovarian, in the assay with SF-268 CNS, with KM12 colon and with UACC-257 melanoma was greater than 100 µM each time.

For the compound `CN(C)c1ccc(Nc2c3ccccc3nc3cc(NC(=O)CCN4CCCC4)ccc23)cc1`, the concentration for 50% growth inhibition (GI50) in the assay on COLO 205 colon is 0.309 µM; with SNB-75 CNS it was 0.381 µM; in the assay with SR leukemia, 0.0421 µM; with SK-MEL-2 melanoma it was 1.75 µM; in the assay on SK-MEL-5 melanoma, 1.04 µM; with HL-60(TB) leukemia, 0.19 µM. The GI50 in the assay on OVCAR-8 ovarian was 0.533 µM; with SF-268 CNS it was 0.473 µM; in the assay on KM12 colon, 0.497 µM; in the assay on UACC-257 melanoma it was 1.65 µM. Besides, the TGI amounted to 1.76 µM with COLO 205 colon; 1.72 µM in the assay on SNB-75 CNS; 1.24 µM in the assay with SR leukemia; 3.33 µM in the assay on SK-MEL-2 melanoma; 2.32 µM in the assay on SK-MEL-5 melanoma; 0.763 µM in the assay with HL-60(TB) leukemia. For the same compound, the TGI in the assay with OVCAR-8 ovarian came out at 2.96 µM; with SF-268 CNS, 1.88 µM; in the assay on KM12 colon it was 1.88 µM; with UACC-257 melanoma it was 3.51 µM.

`NC(=O)c1sc(-n2cnc3ccc(C(F)(F)F)cc32)cc1OCc1ccccc1Br`: the GI50 with COLO 205 colon is 0.802 µM; in the assay with SNB-75 CNS, 6.11 µM; in the assay with SR leukemia it was 0.907 µM; in the assay on SK-MEL-2 melanoma, 1.31 µM; in the assay with SK-MEL-5 melanoma, 0.916 µM; in the assay on HL-60(TB) leukemia it was 0.558 µM. Further, the GI50 was 1.78 µM in the assay with OVCAR-8 ovarian, 1.32 µM with SF-268 CNS, 0.723 µM in the assay with KM12 colon and 2.74 µM with UACC-257 melanoma. The TGI in the assay with COLO 205 colon was 3.44 µM; with SNB-75 CNS, greater than 25 µM; with SR leukemia, greater than 25 µM; in the assay with SK-MEL-2 melanoma, 11.3 µM; with SK-MEL-5 melanoma, 6.78 µM; in the assay on HL-60(TB) leukemia it was 1.76 µM. Further, the TGI in the assay on OVCAR-8 ovarian was greater than 25 µM; in the assay on SF-268 CNS it was greater than 25 µM; with KM12 colon, 2.87 µM; with UACC-257 melanoma, greater than 25 µM.

For the compound `CCCCCCCCNC(C)C(O)c1ccc(SC(C)C)cc1` (centres undefined), the GI50 is 1.62 µM with COLO 205 colon; 1.72 µM in the assay with SNB-75 CNS; 1.99 µM in the assay on SR leukemia; 2.05 µM with SK-MEL-2 melanoma; 1.62 µM with SK-MEL-5 melanoma; 2.2 µM with HL-60(TB) leukemia. For the same compound, the GI50 in the assay on SF-268 CNS was 1.67 µM; in the assay on KM12 colon, 1.76 µM. The TGI in the assay with COLO 205 colon stood at 3 µM; in the assay with SNB-75 CNS, 3.26 µM; in the assay with SR leukemia, 5.71 µM; in the assay on SK-MEL-2 melanoma, 3.74 µM; in the assay on SK-MEL-5 melanoma it was 2.99 µM; in the assay on HL-60(TB) leukemia it was 4.07 µM. For the same compound, the values for the TGI with SF-268 CNS and in the assay with KM12 colon were 3.14 µM and 3.18 µM, respectively.
